# Active and inactive are the calls of the source. The rule behind the calls is not given here.
# Columns and labels:
# [1] = target: T1, Ubiquitin carboxyl-terminal hydrolase isozyme L3 (Homo sapiens) (UniProt P15374); experiment: Inhibition of human UCH-L3 using Ub-AMC as substrate at 1 to 30 uM after 60 mins by fluorometric analysis
# T1 sequence (whole entry): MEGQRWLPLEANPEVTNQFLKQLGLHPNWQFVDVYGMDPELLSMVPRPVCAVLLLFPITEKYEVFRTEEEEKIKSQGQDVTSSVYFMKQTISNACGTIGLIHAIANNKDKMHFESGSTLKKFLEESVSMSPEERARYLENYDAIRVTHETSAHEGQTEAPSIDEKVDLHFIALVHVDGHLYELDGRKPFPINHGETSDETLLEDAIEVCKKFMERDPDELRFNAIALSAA
# [2] = target: T2, Ubiquitin carboxyl-terminal hydrolase isozyme L1 (Homo sapiens, UniProt P09936); experiment: Inhibition of human UCH-L1 using Ub-AMC as substrate after 60 mins by fluorometric analysis
# T2 sequence (P09936 whole entry): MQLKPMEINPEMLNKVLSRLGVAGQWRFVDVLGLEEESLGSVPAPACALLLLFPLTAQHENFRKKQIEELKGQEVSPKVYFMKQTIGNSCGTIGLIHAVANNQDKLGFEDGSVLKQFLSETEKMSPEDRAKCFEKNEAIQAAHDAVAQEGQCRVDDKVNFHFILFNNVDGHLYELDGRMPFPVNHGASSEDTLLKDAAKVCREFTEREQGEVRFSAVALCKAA
# [3] = target: T3, Ubiquitin carboxyl-terminal hydrolase 8 (Homo sapiens) (UniProt P40818); experiment: Inhibition of human USP8 using Ub-AMC as substrate at 1 to 30 uM after 60 mins by fluorometric analysis
# T3 sequence (whole entry): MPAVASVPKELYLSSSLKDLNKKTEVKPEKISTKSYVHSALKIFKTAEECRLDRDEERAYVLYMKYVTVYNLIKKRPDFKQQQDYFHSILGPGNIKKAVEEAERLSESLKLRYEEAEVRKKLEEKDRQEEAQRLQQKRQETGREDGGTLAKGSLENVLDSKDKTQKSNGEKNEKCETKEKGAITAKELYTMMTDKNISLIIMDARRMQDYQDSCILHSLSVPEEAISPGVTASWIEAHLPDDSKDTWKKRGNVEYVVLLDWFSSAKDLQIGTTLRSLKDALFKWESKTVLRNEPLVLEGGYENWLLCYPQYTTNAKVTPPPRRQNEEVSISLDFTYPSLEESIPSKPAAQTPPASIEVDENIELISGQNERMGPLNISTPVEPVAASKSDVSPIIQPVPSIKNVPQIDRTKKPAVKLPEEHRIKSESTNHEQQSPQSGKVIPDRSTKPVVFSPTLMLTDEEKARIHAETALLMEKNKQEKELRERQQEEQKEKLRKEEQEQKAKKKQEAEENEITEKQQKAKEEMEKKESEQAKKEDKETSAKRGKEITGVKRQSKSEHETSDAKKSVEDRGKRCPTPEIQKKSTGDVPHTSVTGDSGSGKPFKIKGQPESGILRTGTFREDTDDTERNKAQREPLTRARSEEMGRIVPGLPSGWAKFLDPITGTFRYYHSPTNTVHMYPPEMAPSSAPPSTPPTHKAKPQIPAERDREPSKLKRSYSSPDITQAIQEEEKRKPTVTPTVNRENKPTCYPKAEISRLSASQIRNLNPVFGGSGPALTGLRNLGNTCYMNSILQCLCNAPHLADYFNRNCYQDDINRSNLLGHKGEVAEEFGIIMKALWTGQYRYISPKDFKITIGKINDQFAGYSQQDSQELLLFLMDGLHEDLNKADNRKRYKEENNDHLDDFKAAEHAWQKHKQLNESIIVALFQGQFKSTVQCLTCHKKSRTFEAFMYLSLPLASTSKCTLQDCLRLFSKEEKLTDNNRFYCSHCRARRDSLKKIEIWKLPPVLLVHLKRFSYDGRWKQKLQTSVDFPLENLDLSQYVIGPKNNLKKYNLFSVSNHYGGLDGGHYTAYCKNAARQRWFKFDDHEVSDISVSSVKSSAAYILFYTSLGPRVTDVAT
# [4] = tested on: T4, Ubiquitin carboxyl-terminal hydrolase 5 (Homo sapiens), P45974 [C335A]; experiment: Competitive binding affinity to human USP5 C335A mutant by SDS-PAGE analysis in presence of biotin-DMT
# T4 sequence (whole entry): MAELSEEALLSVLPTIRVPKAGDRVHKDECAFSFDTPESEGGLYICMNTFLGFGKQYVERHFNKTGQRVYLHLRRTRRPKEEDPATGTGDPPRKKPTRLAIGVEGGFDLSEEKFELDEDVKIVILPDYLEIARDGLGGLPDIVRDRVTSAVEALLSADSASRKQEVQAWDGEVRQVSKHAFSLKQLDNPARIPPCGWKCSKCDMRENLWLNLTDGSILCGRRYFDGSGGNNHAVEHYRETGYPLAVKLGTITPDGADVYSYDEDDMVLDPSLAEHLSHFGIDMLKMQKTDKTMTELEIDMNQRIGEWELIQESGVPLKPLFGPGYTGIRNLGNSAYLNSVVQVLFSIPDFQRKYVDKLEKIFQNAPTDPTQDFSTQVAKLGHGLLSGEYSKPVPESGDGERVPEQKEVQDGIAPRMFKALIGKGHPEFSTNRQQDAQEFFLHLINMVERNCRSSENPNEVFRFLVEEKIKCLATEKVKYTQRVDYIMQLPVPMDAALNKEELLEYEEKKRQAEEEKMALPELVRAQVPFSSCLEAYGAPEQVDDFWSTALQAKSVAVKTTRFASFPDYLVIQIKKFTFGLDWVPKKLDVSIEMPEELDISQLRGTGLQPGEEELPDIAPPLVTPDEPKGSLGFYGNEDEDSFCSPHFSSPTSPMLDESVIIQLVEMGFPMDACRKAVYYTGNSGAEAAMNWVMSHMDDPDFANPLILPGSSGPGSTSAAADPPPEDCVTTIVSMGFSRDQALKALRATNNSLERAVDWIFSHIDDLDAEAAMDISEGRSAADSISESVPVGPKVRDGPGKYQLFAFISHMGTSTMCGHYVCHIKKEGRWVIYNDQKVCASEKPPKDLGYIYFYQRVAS
structure (smiles),measurement,setting,value
O=C(Cc1ccccc1)Oc1c(OC(=O)Cc2ccccc2)c(-c2ccc(O)cc2)c(O)c(O)c1-c1ccc(O)cc1 [VIALININ A],inhibition,[1],inactive
same,IC50,[2],22.3 µM
same,inhibition,[3],inactive
same,Activity,[4],inactive
